Data on 6 molecules can be found in ChEMBL document CHEMBL2086377, “Synthesis and functionalization of cyclic sulfonimidamides: a novel chiral heterocyclic carboxylic Acid bioisostere” (ACS Med Chem Lett, 2012).

Data set [1] is described as follows: Octanol-buffer partition coefficient, log D of the compound after 30 mins by shake flask method at pH 7.4.
The nature of data set [2]: Dissociation constant, pKa of the compound at 10 mM by pressure-assisted capillary electrophoretic/mass spectrometric analysis. Type of data set: physicochemical.
Data set [3] is described as follows: Apparent permeability of the compound from apical to basal side of human Caco2 cells at 1 uM after 60 mins by LCMS analysis. Format: ADME, cell-based. As to conditions: Caco-2. In general terms: Caco-2 monolayers are a common model of the intestinal barrier.
Another data set can be described thus: in vitro. As to conditions: human, Caco-2.

Description for in vitro: Efflux ratio of apparent permeability of the compound from basal to apical to apical to basal side of human Caco2 cells at 1 uM after 60 mins by LCMS analysis

As to `N#Cc1cccc(-c2cccc(C(=O)O)c2)c1`, the logD at 0.5 h in data set [1] was 0.3.
As to `Cc1ccc(-c2cccc(C(=O)O)c2)cc1`, the pKa at 10000 µM in data set [2] is 4.
As for `C[C@@H]1N[S@](=O)(c2cccc(-c3cccc(C#N)c3)c2)=NC1=O`, the pKa at 10000 µM in data set [2] was 5.8. The Papp A→B at 1 h, 1 µM in data set [3] is 2.3 ×10⁻⁶ cm/s.
In turn, `N#Cc1cccc(-c2cccc(-c3nn[nH]n3)c2)c1` came in with a logD at 0.5 h in data set [1] of 0.7. Moreover, the pKa at 10000 µM in data set [2] was 4. Moreover, in data set [3], the Papp A→B at 1 h, 1 µM is under 0.3 ×10⁻⁶ cm/s. Further, the efflux ratio at 1 h, 1 µM in “in vitro” was found to be 255.
Consider `Cc1ccc(-c2cccc([S@]3(=O)=NC(=O)[C@H](C)N3)c2)cc1`, for which, in data set [2], the pKa at 10000 µM turned out to be 6. The Papp A→B at 1 h, 1 µM in data set [3] was 66 ×10⁻⁶ cm/s.
In turn, `Cc1ccc(-c2cccc(-c3nn[nH]n3)c2)cc1` gave a logD at 0.5 h in data set [1] of 1.3. Also, the pKa at 10000 µM in data set [2] worked out at 4.1.

As usually defined, the logD is the decadic logarithm of the distribution of all forms, ionised or not, between an organic phase and buffer at a given pH. Low readings indicate lower lipophilicity, high ones higher lipophilicity. The pKa is the pH at which an ionisable group is half protonated. Higher therefore signals a weaker acid or stronger base. One may read the Papp A→B as the apparent permeability from the apical to the basolateral side of a cell layer. A word on the efflux ratio: it is a quotient of directional permeabilities that is used to spot active efflux.
